Test results taken from ChEMBL document CHEMBL4673385, “Discovery of Potent Inhibitors of Streptococcus mutans Biofilm with Antivirulence Activity” (ACS Med Chem Lett, 2021).
Values after ≈ are worked out from the molar mass of the structure shown. Active and inactive are the calls of the source. The rule behind the calls is not given here.

Columns and labels:
Streptococcus mutans [1] = test: Antibiofilm activity against Streptococcus mutans UA159 assessed as inhibition of biofilm formation by serial dilution method; assay type: functional, organism-based
Streptococcus mutans [2] = test: Bactericidal activity against Streptococcus mutans UA159 assessed as reduction in bacterial growth at 100 uM after 24 hrs; assay type: functional, organism-based
[3] = Solubility of compound in water; assay type: physicochemical
[4] = Streptococcus mutans, UA159, read-out: IC50

Compound | IC50 (Streptococcus mutans [1]; [4]) [µM] | Activity (Streptococcus mutans [2]) | solubility ([3]; water, read-out: solubility) [µg/mL] | IC50 (Streptococcus mutans [1]) | solubility ([3]; buffer)
COc1ccc2[nH]c(C(=O)Nc3ccccc3C(N)=O)cc2c1 | > 300 | inactive | 10 (≈ 32.3 µM) |  | 
COC(=O)c1ccc(NC(=O)c2cc3ccccc3s2)cc1 | 41.2 | inactive | 20 (≈ 64.2 µM) |  | 
CC(C)(C)OC(=O)NCc1ccccc1NC(=O)c1ccc(-c2ccccc2)cc1 | 124 | inactive | < 5 |  | 
COC(=O)c1ccccc1NC(=O)c1cccc2ccccc12 | > 300 | inactive | 5 (≈ 16.4 µM) |  | 
CC(C)(C)OC(=O)NCc1ccccc1NC(=O)c1cccc2ccccc12 | 196 | inactive | 5 (≈ 13.3 µM) |  | 
COC(=O)c1ccccc1NC(=O)c1cc2cc([N+](=O)[O-])ccc2o1 | 71.4 | inactive | 25 (≈ 73.5 µM) |  | 
COC(=O)c1ccc(NC(=O)c2ccc3ccccc3n2)cc1 |  | inactive | 25 (≈ 81.6 µM) |  | 
COC(=O)c1ccccc1NC(=O)c1cc2cc([N+](=O)[O-])ccc2[nH]1 |  | inactive |  | Nd(Insoluble) | Insoluble
NCc1ccccc1NC(=O)c1ccc(-c2ccccc2)cc1 | 196 | inactive |  |  | 
COC(=O)c1ccc(NC(=O)c2cnc3ccccc3c2)cc1 | 92.3 | inactive | < 5 |  | 
COC(=O)c1cccc(NC(=O)c2cc3cc([N+](=O)[O-])ccc3[nH]2)c1 |  | inactive |  | Nd(Insoluble) | Insoluble
COc1ccc2[nH]c(C(=O)Nc3ccccc3CN)cc2c1 |  | inactive |  | Nd(Insoluble) | Insoluble
COC(=O)c1ccc(NC(=O)c2ccc(-c3ccccc3)cc2)cc1 | > 300 | inactive |  |  | 
O=C(Nc1ccccc1)c1cnc2ccccc2c1 | > 300 | inactive | 5 (≈ 20.1 µM) |  | 
COC(=O)c1cccc(NC(=O)c2cc3cc([N+](=O)[O-])ccc3s2)c1 | 54.4 | inactive | 25 (≈ 70.2 µM) |  | 
NC(=O)c1cccc(NC(=O)c2cc3cc([N+](=O)[O-])ccc3o2)c1 | 38.8 | inactive | 20 (≈ 61.5 µM) |  | 
O=C(Nc1ccccc1)c1cccc2ccccc12 | > 300 | inactive |  |  | 
NC(=O)c1ccc(NC(=O)c2ccc3ccccc3c2)cc1 | 110 | inactive | < 5 |  | 
NC(=O)c1ccccc1NC(=O)c1cc2cc([N+](=O)[O-])ccc2[nH]1 |  | inactive |  | Nd(Insoluble) | Insoluble

Compound | IC50 (Streptococcus mutans [1]; [4]) [µM] | Activity (Streptococcus mutans [2]) | solubility ([3]; water, read-out: solubility) [µg/mL] | IC50 (Streptococcus mutans [1]) | solubility ([3]; buffer)
NCc1ccccc1NC(=O)c1cnc2ccccc2c1 |  | inactive | 5 (≈ 18 µM) |  | 
CC(C)(C)OC(=O)NCc1ccccc1NC(=O)c1ccc2ccccc2n1 | 67.5 | inactive | < 5 |  | 
COC(=O)c1cccc(NC(=O)c2ccc(-c3ccccc3)cc2)c1 | 105 | inactive | < 5 |  | 
COC(=O)c1ccc(NC(=O)c2cc3cc([N+](=O)[O-])ccc3[nH]2)cc1 |  | inactive |  | Nd(Insoluble) | Insoluble
COc1ccc2[nH]c(C(=O)Nc3ccc(C(N)=O)cc3)cc2c1 | > 300 | inactive |  |  | 
O=C(Nc1ccccc1)c1ccc2ccccc2n1 | > 300 | inactive | 25 (≈ 101 µM) |  | 
COC(=O)c1cccc(NC(=O)c2cc3cc(OC)ccc3[nH]2)c1 |  | inactive |  | Nd(Insoluble) | Insoluble
NC(=O)c1cccc(NC(=O)c2cc3cc([N+](=O)[O-])ccc3s2)c1 | 42.3 | inactive | 25 (≈ 73.2 µM) |  | 
COC(=O)c1cccc(NC(=O)c2cc3ccccc3s2)c1 |  | inactive |  |  | 
NCc1ccccc1NC(=O)c1cc2cc([N+](=O)[O-])ccc2o1 | 98.3 | inactive | 5 (≈ 16.1 µM) |  | 
COC(=O)c1ccc(NC(=O)c2cc3cc([N+](=O)[O-])ccc3o2)cc1 |  | inactive | 20 (≈ 58.8 µM) |  | 
O=C(Nc1ccccc1)c1ccc(-c2ccccc2)cc1 | > 300 | inactive |  |  | 
NC(=O)c1cccc(NC(=O)c2cc3ccccc3s2)c1 |  | inactive | < 5 |  | 
COC(=O)c1ccccc1NC(=O)c1ccc(-c2ccccc2)cc1 | > 300 | inactive |  |  | 
NC(=O)c1ccc(NC(=O)c2ccc3ccccc3n2)cc1 | 54.4 | inactive | 5 (≈ 17.2 µM) |  | 
COC(=O)c1ccc(NC(=O)c2cc3cc(OC)ccc3[nH]2)cc1 |  | inactive |  | Nd(Insoluble) | Insoluble
NCc1ccccc1NC(=O)c1cc2ccccc2s1 | 167 | inactive |  |  | 
NC(=O)c1cccc(NC(=O)c2ccc(-c3ccccc3)cc2)c1 | 79.9 | inactive | 25 (≈ 79 µM) |  | 
COC(=O)c1cccc(NC(=O)c2cnc3ccccc3c2)c1 |  | inactive |  |  | 

Compound | IC50 (Streptococcus mutans [1]; [4]) [µM] | Activity (Streptococcus mutans [2]) | solubility ([3]; water, read-out: solubility) [µg/mL] | IC50 (Streptococcus mutans [1]) | solubility ([3]; buffer)
NC(=O)c1cccc(NC(=O)c2ccc3ccccc3n2)c1 |  | inactive | 10 (≈ 34.3 µM) |  | 
NC(=O)c1cccc(NC(=O)c2cccc3ccccc23)c1 |  | inactive | 10 (≈ 34.4 µM) |  | 
COC(=O)c1ccccc1NC(=O)c1cc2ccccc2s1 | > 300 | inactive |  |  | 
CC(C)(C)OC(=O)NCc1ccccc1NC(=O)c1ccc2ccccc2c1 | 56.8 | inactive |  |  | 
O=C(Nc1ccccc1)c1cc2ccccc2s1 | > 300 | inactive |  |  | 
NC(=O)c1ccccc1NC(=O)c1cc2cc([N+](=O)[O-])ccc2o1 |  | inactive | 5 (≈ 15.4 µM) |  | 
NCc1ccccc1NC(=O)c1cc2cc([N+](=O)[O-])ccc2[nH]1 |  | inactive |  |  | 
COC(=O)c1ccccc1NC(=O)c1ccc2ccccc2c1 |  | inactive | 25 (≈ 81.9 µM) |  | 
NC(=O)c1ccc(NC(=O)c2cnc3ccccc3c2)cc1 | > 300 | inactive |  |  | 
NC(=O)c1ccc(NC(=O)c2cccc3ccccc23)cc1 |  | inactive | < 5 |  | 
COC(=O)c1ccccc1NC(=O)c1cc2cc([N+](=O)[O-])ccc2s1 | > 300 | inactive |  |  | 
NC(=O)c1ccccc1NC(=O)c1cccc2ccccc12 | 150 | inactive |  |  | 
NCc1ccccc1NC(=O)c1cc2cc([N+](=O)[O-])ccc2s1 |  | inactive | 1000 (≈ 3050 µM) |  | 
COC(=O)c1ccc(NC(=O)c2cccc3ccccc23)cc1 | > 300 | inactive |  |  | 
NC(=O)c1ccc(NC(=O)c2cc3cc([N+](=O)[O-])ccc3s2)cc1 | > 300 | inactive |  |  | 
NC(=O)c1ccc(NC(=O)c2cc3cc([N+](=O)[O-])ccc3o2)cc1 | > 300 | inactive |  |  | 
NCc1ccccc1NC(=O)c1ccc2ccccc2c1 |  | inactive |  |  | 
O=C(Nc1ccccc1)c1ccc2ccccc2c1 | > 300 | inactive |  |  | 
